This note sets out measurements from paper PMC11602115 (Journal of Medicinal Chemistry, 2017).

Read-outs that look alike come from different tables or passages of the source.

The target in one series is T1, human DP1 receptor (Homo sapiens, UniProt Q13258).
T1 construct: expressed in transfected cells
T1 sequence (Q13258 1-359): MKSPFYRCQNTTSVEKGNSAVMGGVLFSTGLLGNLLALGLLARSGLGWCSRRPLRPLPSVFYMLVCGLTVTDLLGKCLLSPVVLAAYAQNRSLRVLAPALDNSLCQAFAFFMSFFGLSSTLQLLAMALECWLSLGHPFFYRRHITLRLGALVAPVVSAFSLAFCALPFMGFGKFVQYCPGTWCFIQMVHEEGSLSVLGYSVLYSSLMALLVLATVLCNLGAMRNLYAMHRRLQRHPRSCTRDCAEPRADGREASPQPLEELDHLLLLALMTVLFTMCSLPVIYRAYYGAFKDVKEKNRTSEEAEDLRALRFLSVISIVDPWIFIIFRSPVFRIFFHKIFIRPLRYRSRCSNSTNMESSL
Briefly: HTRF cAMP assay, recombinant human DP1 receptor in CHO-K1 cells. It is filed as cell-based. The note with it: for Emax: CHO-K1, intrinsic activity relative to 1 μM PGD2, read-out: hDP1 % IA. On the procedure:
(§1) The new compounds were tested for functional agonist activity in a standard (Cisbio) cAMP assay using recombinant IP or DP1 receptors stably expressed in CHO-K1 cells. Clonal cell lines were derived following standard protocols, but receptor expression levels were kept to a minimum to preclude receptor reserve effects.
(§2) For development of cAMP accumulation assays, recombinant IP or DP1 receptors were stably expressed in CHO-K1 cells and clonal cell lines derived following standard protocols. Receptor expression levels were minimized to preclude receptor reserve effects. HTRF cAMP assays were performed according to the manufacturer’s instructions (Cisbio, cAMP Dynamic 2 assay kit; no. 62AM4PEJ). IP receptor-expressing cells were harvested, resuspended in assay buffer (PBS containing 1 mM IBMX and 0.2% BSA) at a density of 200 000 cells per mL, and dispensed into 384-well assay plates (PerkinElmer Proxiplate no. 6008280) at 5 μL per well. Test compounds were solubilized and serially diluted in DMSO using 5-fold dilutions to generate a 10-point dose–response curve with a top concentration of 10 μM. The samples were then further diluted in PBS to achieve a 2× stock. Diluted compounds were then transferred to a triplicate set of assay plates (5 μL per well). After a 1 h incubation at room temperature, 5 μL of cAMP-D2 reagent diluted in lysis buffer was added to each well followed by 5 μL of cryptate reagent. Plates were then incubated at room temperature for 1 h prior to reading. Time-resolved fluorescence measurements were collected on PerkinElmer Envision or BMG Pherastar microplate readers.

A further series relates to human platelet. Kind of series: Inhibition of ADP-induced human platelet aggregation. The series is classed as cell-based. Particulars: aggregation induced by 2.5 μM ADP, mean of at least two determinations. On the procedure: Such aggregated and activated platelets produce vasoactive substances such as thromboxane and serotonin that may cause harmful vasoconstriction and vascular remodeling.[13] […] This secondary assay was carried out as previously described,[14] with aggregation induced by 2.5 μM ADP in the presence or absence of IP receptor agonists.

Series [1] in a line: Stability in human microsome preparations. Particulars: incubation at 37 °C, human microsomes; read-out: human MS, T1/2. It is filed as in vitro ADME. The source says:
(§3) Table 1 Screening Data for Selected Analogues ^a | column: human and rat MS, T1/2 (min) ^g

Series [2] can be described thus: Stability in rat microsome preparations. It is filed as in vitro ADME. Particulars: incubation at 37 °C, rat microsomes; read-out: rat MS, T1/2.
Excerpt: as §3

The next series is described as follows: Rat PK (iv and oral). The series is classed as in vivo. Particulars: for AUC(0-inf) / bioavailability: Sprague-Dawley, plasma; for AUC(0-inf): after oral administration 10 mg/kg (5m 10.5); for bioavailability: po, 10 mg/kg; for Cmax / Tmax: po 10 mg/kg (5m 10.5); for T1/2: terminal half-life after iv 2 mg/kg (5m 2.1); for Clobs: total clearance, iv 2 mg/kg (5m 2.1).

For a further series, the target named is IP (Homo sapiens, UniProt P43119). Briefly: HTRF cAMP assay, recombinant human IP receptor stably expressed in CHO-K1 cells. The series is classed as cell-based. More on the design: expressed in transfected cells. Particulars: for Emax: CHO-K1, read-out: hIP % IA; for EC50: HTRF (cAMP) human IP receptor assay, mean of at least three determinations. On the procedure: as §1, §2
(In general: Time-resolved FRET reads energy transfer from a long-lived donor to a nearby acceptor.)

Another series concerns the target rat IP (Rattus norvegicus, UniProt P43253). Briefly: HTRF cAMP assay, recombinant rat IP receptor. It is filed as cell-based. Also on record: expressed in transfected cells. The note with it: for EC50: HTRF (cAMP) rat IP receptor assay, mean of at least three determinations; for Emax: read-out: rIP % IA. The procedure:
as §1, §2

For another series, the target named is EP2 (Homo sapiens, UniProt P43116). Briefly: cAMP HTRF agonist assay, EP2. It is filed as cell-based. Particulars: cAMP HTRF agonist assay. An excerpt: Table Sup2: Data with some comparator compounds in functional assays. […]
Another series has as its target EP4 (Homo sapiens, UniProt P35408). Briefly: cAMP HTRF agonist assay, EP4. It is filed as cell-based. The note with it: cAMP HTRF agonist assay. An excerpt: (§4) Table Sup2: Data with some comparator compounds in functional assays.
(§5) Compound DP1 EP1 EP2 EP3v6 EP4
(§6) EC50, µµµµM (% I.A) EC50, µµµµM (% I.A) EC50, µµµµM (% I.A) EC50, µµµµM (% I.A) EC50, µµµµM (% I.A)
(§7) n = 3 n = 2 n = 8 n = 6 n = 6 […]

A further series has as its target T2, EP1 (Homo sapiens, UniProt P34995).
T2 sequence (P34995 1-402): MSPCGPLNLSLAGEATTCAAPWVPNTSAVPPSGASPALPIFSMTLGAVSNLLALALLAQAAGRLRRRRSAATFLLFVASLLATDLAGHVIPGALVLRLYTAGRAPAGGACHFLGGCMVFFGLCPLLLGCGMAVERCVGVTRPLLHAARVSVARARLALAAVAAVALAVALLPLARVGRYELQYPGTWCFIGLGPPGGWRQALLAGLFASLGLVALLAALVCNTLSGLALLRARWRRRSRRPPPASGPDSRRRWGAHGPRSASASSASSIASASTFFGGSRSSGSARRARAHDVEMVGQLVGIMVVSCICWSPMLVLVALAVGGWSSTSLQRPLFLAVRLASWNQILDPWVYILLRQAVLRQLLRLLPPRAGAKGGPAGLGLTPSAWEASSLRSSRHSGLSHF
Kind of series: cAMP HTRF agonist assay, EP1. It is filed as cell-based.
Excerpt: as §4, §5, §6, §7

Setting [3] is: HTRF (cAMP) human DP1 receptor assay, mean of at least three determinations, read-out: EC50 hDP1.
The mark [4] stands for this setting: cAMP HTRF agonist assay (Gs), Table Sup2, read-out: DP1 EC50.

Chain of EP2 (P43116 whole entry): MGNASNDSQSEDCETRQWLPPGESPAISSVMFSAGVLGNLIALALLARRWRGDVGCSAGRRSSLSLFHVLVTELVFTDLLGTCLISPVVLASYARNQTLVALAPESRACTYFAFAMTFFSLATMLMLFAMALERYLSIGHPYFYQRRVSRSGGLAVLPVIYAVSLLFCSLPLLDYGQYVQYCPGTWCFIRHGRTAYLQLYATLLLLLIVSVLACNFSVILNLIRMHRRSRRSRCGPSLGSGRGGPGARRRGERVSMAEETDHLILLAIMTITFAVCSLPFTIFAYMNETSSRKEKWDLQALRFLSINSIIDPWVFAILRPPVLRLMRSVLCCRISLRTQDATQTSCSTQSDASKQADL
Chain of IP (P43119 whole entry): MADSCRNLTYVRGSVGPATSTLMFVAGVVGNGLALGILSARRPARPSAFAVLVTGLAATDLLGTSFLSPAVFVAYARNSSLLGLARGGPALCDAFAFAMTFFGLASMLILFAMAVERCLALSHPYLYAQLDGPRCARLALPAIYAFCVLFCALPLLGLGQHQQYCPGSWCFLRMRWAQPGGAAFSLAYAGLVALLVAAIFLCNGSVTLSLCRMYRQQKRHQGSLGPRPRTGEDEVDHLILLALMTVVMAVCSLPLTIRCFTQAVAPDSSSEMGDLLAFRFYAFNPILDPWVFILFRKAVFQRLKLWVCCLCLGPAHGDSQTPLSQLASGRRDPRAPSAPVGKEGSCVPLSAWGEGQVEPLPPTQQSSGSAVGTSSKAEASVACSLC
Chain of rat IP (P43253 whole entry): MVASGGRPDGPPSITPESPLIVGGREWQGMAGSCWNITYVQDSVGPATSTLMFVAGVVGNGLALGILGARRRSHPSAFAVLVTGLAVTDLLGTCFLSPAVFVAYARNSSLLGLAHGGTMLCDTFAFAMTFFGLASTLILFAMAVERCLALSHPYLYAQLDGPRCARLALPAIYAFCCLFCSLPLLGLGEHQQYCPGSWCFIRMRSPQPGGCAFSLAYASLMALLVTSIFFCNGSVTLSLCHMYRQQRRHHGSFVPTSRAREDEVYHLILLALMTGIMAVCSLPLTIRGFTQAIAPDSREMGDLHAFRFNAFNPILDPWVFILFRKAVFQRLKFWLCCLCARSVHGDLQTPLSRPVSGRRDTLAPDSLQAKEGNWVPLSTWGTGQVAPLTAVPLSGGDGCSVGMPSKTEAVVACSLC
Chain of EP4 (P35408 whole entry): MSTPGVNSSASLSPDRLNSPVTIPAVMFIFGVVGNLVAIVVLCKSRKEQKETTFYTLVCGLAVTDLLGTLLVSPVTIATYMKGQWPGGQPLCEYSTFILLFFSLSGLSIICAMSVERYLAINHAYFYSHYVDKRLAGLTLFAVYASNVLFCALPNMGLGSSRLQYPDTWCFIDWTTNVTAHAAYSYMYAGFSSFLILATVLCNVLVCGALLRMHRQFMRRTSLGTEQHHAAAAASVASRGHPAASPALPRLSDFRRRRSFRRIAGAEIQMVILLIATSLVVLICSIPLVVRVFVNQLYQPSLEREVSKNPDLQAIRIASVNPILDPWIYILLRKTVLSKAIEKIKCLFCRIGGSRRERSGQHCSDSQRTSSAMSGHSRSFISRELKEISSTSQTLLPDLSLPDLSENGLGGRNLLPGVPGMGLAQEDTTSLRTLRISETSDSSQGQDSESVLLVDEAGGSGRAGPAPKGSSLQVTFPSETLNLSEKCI

For the molecule `COc1ccc(N(C(=O)OC[C@H]2CC[C@H](COCC(=O)O)CC2)c2ccccc2)cc1` [5e, 2-(((1r,4r)-4-(((4-Methoxyphenyl)(phenyl)carbamoyloxy)methyl)cyclohexyl)methoxy)acetic Acid], at human DP1 receptor, the Emax was 74%. In addition, the EC50 at human DP1 receptor (setting [3]) is 240 nM. Further, the IC50 in the series with human platelet worked out at 22 nM. Moreover, in [1], the half-life is more than 1 h. Besides, the half-life in series [2] is more than 1 h. In addition, in the series “Rat PK (iv and oral)”, the area under the curve AUC(0-inf) came out at 3400 ng·h/mL, the bioavailability came out at 100%, the Cmax was found to be 950 ng/mL and the Tmax came out at 0.3 h. In “Rat PK (iv and oral)”, the T1/2 turned out to be 0.3 h and the Clobs stood at 3.4 L h^–1 kg^–1. For the same molecule, at IP, the Emax turned out to be 83% and the EC50 was 3.3 nM. On rat IP, the EC50 was 165 nM and the Emax is 91%.

In the case of `COc1cccc(N(C(=O)OC[C@H]2CC[C@H](COCC(=O)O)CC2)c2ccccc2)c1` [5j, 2-(((1r,4r)-4-(((3-Methoxyphenyl)(phenyl)carbamoyloxy)methyl)cyclohexyl)methoxy)acetic Acid], on human DP1 receptor, the Emax was determined as 68%. In addition, on human DP1 receptor (setting [3]), the EC50 worked out at 1720 nM. Moreover, the midpoint of inhibition in the series on human platelet, the IC50, lay at 23 nM. Also, the half-life in series [1] is more than 1 h. Also, the half-life in [2] is 0.883 h. In the series “Rat PK (iv and oral)”, the AUC(0-inf) came out at 1900 ng·h/mL, the bioavailability worked out at 86%, the Cmax came to 900 ng/mL and the Tmax came to 0.3 h. Moreover, in the series “Rat PK (iv and oral)”, the T1/2 is listed as 3.3 h and the Clobs worked out at 5.1 L h^–1 kg^–1. Moreover, on IP, the Emax stood at 92% and the EC50 came to 12 nM. Besides, at rat IP, the EC50 stood at 470 nM and the Emax came out at 94%.

For `O=C(O)COC[C@H]1CC[C@H](COC(=O)N(c2ccccc2)c2ccc(F)cc2)CC1` [5l, 2-(((1r,4r)-4-(((4-Fluorophenyl)(phenyl)carbamoyloxy)methyl)cyclohexyl)methoxy)acetic Acid], at human DP1 receptor, the Emax came out at 55%. Besides, the EC50 at human DP1 receptor (setting [3]) is 620 nM. In the series on human platelet, this molecule registered an IC50 of 12 nM. The half-life in series [1] was more than 1 h. Further, in series [2], the half-life is more than 1 h. Moreover, in “Rat PK (iv and oral)”, the AUC(0-inf) is 7900 ng·h/mL, the bioavailability amounted to 100%, the Cmax was found to be 1200 ng/mL and the Tmax is 0.3 h. In “Rat PK (iv and oral)”, this molecule gave a T1/2 of 3.9 h and a Clobs of 1.8 L h^–1 kg^–1. On IP, the Emax turned out to be 89% and the EC50 amounted to 6.6 nM. For the same molecule, on rat IP, the EC50 came out at 535 nM and the Emax is 91%.

For the molecule `O=C(O)COC[C@H]1CC[C@H](COC(=O)N(c2ccccc2)c2ccc(Cl)c(F)c2)CC1` [5m, 2-(((1r,4r)-4-(((4-Chloro-3-fluorophenyl)(phenyl)carbamoyloxy)methyl)cyclohexyl)methoxy)acetic Acid], on human DP1 receptor, the Emax came to 38%. The EC50 at human DP1 receptor (setting [3]) is 2050 nM. This molecule showed an IC50 with human platelet of 23 nM. Moreover, in [1], the half-life was more than 1 h. Further, the half-life in series [2] is more than 1 h. Besides, in “Rat PK (iv and oral)”, the AUC(0-inf) worked out at 2600 ng·h/mL, the bioavailability stood at 88%, the Cmax is 3000 ng/mL and the Tmax was 0.5 h. In “Rat PK (iv and oral)”, this molecule displayed a T1/2 of 5 h and a Clobs of 0.8 L h^–1 kg^–1. Further, on IP, the Emax was found to be 85% and the EC50 was 3.4 nM. Besides, at rat IP, the EC50 is 400 nM and the Emax is 92%.

As to `O=C(O)COC[C@H]1CC[C@H](COC(=O)N(c2ccccc2)c2ccc(F)c(F)c2)CC1` [5o, 2-(((1r,4r)-4-(((3,4-Difluorophenyl)(phenyl)carbamoyloxy)methyl)cyclohexyl)methoxy)acetic Acid], on human DP1 receptor, the Emax is 45%. Besides, on human DP1 receptor (setting [3]), the EC50 stood at 5000 nM. In the series with human platelet, this molecule came in with an IC50 of 19 nM. Further, the half-life in series [1] was more than 1 h. The half-life in [2] is more than 1 h. In the series “Rat PK (iv and oral)”, the AUC(0-inf) turned out to be 4500 ng·h/mL, the bioavailability was determined as 24%, the Cmax came to 1430 ng/mL and the Tmax was 0.833 h. Besides, in “Rat PK (iv and oral)”, the T1/2 turned out to be 3.2 h and the Clobs stood at 0.6 L h^–1 kg^–1. For the same molecule, at IP, the Emax was determined as 88% and the EC50 was 10 nM. Besides, at rat IP, the EC50 came out at 640 nM and the Emax amounted to 95%.

`O=C(O)CCCCCCC1C(=O)NC(=O)N1CCC(O)C1CCCCC1` (centres unmarked) [BW245C]: at human DP1 receptor (cAMP HTRF agonist assay (Gs), Table Sup2), the “DP1 % I.A” value is reported as 98%. Moreover, the EC50 on human DP1 receptor (setting [4]) was 0.8 nM; on EP2, 790 nM; at EP4, more than 10000 nM. Besides, on EP2, the “EP2 % I.A” value amounted to 73%.

As for `CCCCC[C@H](O)/C=C/[C@H]1C(=O)C[C@H](O)[C@@H]1C/C=C\CCCC(=O)O` [PGD2], the figures for the EC50 at human DP1 receptor (setting [4]), at EP1 and at EP2 were 1.3 nM, more than 10000 nM and more than 10000 nM, respectively.

Broadly, the EC50 is the concentration at which the effect is half-maximal. As usually defined, the IC50 is the concentration that gives 50% inhibition. Low values mean higher potency, high ones lower potency. Usually AUC(0-inf) stands for the area under the concentration-time curve extrapolated to infinity. A high value points to more exposure. In general, bioavailability refers to the share of a dose that reaches the circulation, judged against a reference dose that is usually intravenous. Lower therefore signals poor availability. In general, Cmax refers to the highest concentration seen after dosing. For orientation: Tmax means the time from dosing to the highest level.
